Measured values taken from patent US7071376B2, “Genes encoding p-coumarate 3-hydroxylase (C3H) and methods of use” (Purdue Research Foundation, priority 2000, dated 2006).
Where two headings read alike, the source gives them in different places. Values belong to the compound of their own block, whether it stands above or below them.

How the values were obtained:
[1] = molecular target: T1, C3H polypeptide (CYP98A3) (Arabidopsis thaliana, UniProt O22203); assay: in vitro C3H assay with microsomes from yeast expressing CYP98A3
T1 sequence (O22203 1-508): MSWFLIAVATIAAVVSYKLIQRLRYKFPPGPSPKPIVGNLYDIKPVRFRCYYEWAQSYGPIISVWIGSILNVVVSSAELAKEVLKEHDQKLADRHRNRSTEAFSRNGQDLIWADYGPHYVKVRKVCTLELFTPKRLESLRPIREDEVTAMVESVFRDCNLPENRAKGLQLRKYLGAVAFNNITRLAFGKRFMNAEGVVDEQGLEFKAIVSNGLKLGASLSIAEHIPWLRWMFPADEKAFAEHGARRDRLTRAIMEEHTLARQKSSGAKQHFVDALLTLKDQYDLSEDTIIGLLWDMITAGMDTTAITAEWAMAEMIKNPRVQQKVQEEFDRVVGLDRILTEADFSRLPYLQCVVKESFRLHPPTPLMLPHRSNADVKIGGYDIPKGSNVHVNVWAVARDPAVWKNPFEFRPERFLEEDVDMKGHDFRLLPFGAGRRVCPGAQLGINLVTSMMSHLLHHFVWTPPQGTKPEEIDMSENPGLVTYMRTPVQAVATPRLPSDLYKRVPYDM
Description: For C3H assays, an NADPH regenerating system consisting of 1 mM NADP^+, 10 mM glucose-6-phosphate, and 1 unit glucose-6-phosphate dehydrogenase was pre-incubated at 30 C for 5 min to permit the generation of NADPH in the presence of one of the putative C3H substrates in a final volume of 400 μL of assay buffer. Assays were initiated by the addition of 100 μL of microsomes and were allowed to incubate for 60 min at 30C before being terminated by boiling. Assays were clarified by centrifugation for 20 min at 13,000 ×g, and were analyzed directly by HPLC on a Microsorb-MV C-18 column (Rainin, Woburn Mass.) using a gradient of solvent A (1.0% acetic acid in water) and solvent B (acetonitrile; 0 to 10% B in 5 min, 10 to 25% B in 25 min; flow rate 1 mL min^−1). C3H reaction products were quantified using UV detection (caffeic acid, 322 nm; caffeyl aldehyde, 340 nm; caffeic acid methyl ester, 324 nm). Assays conducted using microsomes isolated from yeast transformed with pYeDP60 served as negative controls. The apparent Km for p-coumarate methyl ester was determined using triplicate assays analyzed by the Eadie-Hofstee method(Cornish-Bowden, 1995).
To experimentally address these issues, C3H-containing microsomes were prepared for use in in vitro assays of enzymatic activity.

[2] = molecular target: T2, F5H (Arabidopsis thaliana, UniProt Q42600); details: cited from earlier work
T2 construct: host or cells: yeast
T2 sequence (Q42600 1-520): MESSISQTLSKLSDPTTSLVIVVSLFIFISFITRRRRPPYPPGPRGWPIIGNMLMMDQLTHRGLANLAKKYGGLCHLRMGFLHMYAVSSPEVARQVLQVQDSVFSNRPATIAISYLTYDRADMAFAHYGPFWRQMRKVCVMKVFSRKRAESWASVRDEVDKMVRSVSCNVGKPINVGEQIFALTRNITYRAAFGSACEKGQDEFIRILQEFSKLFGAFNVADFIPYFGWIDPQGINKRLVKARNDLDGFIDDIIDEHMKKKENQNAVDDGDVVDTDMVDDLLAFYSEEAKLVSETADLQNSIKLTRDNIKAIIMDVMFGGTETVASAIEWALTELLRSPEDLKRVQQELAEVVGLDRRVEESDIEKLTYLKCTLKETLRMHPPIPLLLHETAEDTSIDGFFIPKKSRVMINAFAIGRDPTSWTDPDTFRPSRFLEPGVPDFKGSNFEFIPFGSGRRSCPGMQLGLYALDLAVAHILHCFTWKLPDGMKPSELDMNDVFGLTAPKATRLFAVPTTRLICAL

[3] = molecular target: T1, C3H polypeptide (CYP98A3)
Description: WAT11 cells were transformed with pYeDP60, pYeDP60-REF8, and pYeDP60-ref8 (Gietz et al., 1992), cultured and then induced with galactose as described previously (Urban et al., 1994). For in vivo measurements of enzyme activity, cells were grown in media supplemented with 5 mM p-coumaric acid. At the end of the incubation period the medium was extracted with ethylacetate, and analyzed by HPLC as described above.
Finally, WAT11 yeast carrying the control vector and the YeDP60-REF8 vector were assayed for C3H polypeptide activity in vivo by adding p-coumarate directly to the medium of galactose-induced yeast cultures.

[4] = yeast microsomes, NADPH regenerating system, 60 min, 30 C, HPLC

SMILES: O=C(/C=C/c1ccc(O)cc1)O[C@@H]1O[C@H](CO)[C@@H](O)[C@H](O)[C@H]1O [1-O-p-coumaroyl—D-glucose]
activity of C3H toward substrate [1, 4]: no activity

SMILES: COc1cc(/C=C/C=O)ccc1O [coniferaldehyde]
Vmax ([2]; substrate of F5H): 5 pKat mg^−1
Km ([2]; substrate of F5H, read-out: Km): 1 µM

SMILES: COc1cc(/C=C/CO)ccc1O [coniferyl alcohol]
Vmax ([2]; substrate of F5H): 6 pKat mg^−1
Km ([2]; substrate of F5H, read-out: Km): 3 µM

SMILES: COc1cc(/C=C/C(=O)O)ccc1O [ferulate]
Km ([2]; ferulate hydroxylation by F5H): 1000 µM
activity of C3H toward substrate [1, 4]: No activity

SMILES: O=C/C=C/c1ccc(O)cc1 [p-coumaraldehyde]
activity of C3H toward substrate [1, 4]: Levels of activity comparable to those seen with p-coumarate

hydroxylation of substrate added to yeast medium (product caffeic acid) [3]: capable of hydroxylating
SMILES: O=C(O)/C=C/c1ccc(O)cc1 [p-coumarate]
activity of C3H toward substrate [1]: so low that it precluded detailed kinetic analysis

SMILES: CC(C)(COP(=O)(O)OP(=O)(O)OC[C@H]1O[C@@H](n2cnc3c(N)ncnc32)[C@H](O)[C@@H]1OP(=O)(O)O)[C@@H](O)C(=O)NCCC(=O)NCCSC(=O)/C=C/c1ccc(O)cc1 [p-coumaroyl CoA]
activity of C3H toward substrate [1, 4]: no activity

activity of C3H toward substrate [1]: much higher levels of activity
Km ([1]; read-out: apparent Km, substrate of C3H, yeast microsomes, triplicate assays, Eadie-Hofstee method): 2.5 ± 0.1 mM
SMILES: COC(=O)/C=C/c1ccc(O)cc1 [p-coumaroyl methyl ester]

SMILES: OCC=Cc1ccc(O)cc1 [p-hydroxycinnamyl alcohol]
activity of C3H toward substrate [1, 4]: no activity
